This is an account of results in ChEMBL document CHEMBL1201862, “PubChem BioAssay data set” (2004).

Some test systems named below: 786-0; A549; BT-549; COLO 205; HCT-116; HCT-15; HT-29; KM12; LOX IMVI; MDA-MB-435; MDA-N; MOLT-4; NCI-H23; NCI-H460; NCI-H522; OVCAR-8; SF-268; SF-295; SK-MEL-28; T47D.
What all share (test): inhibition of tumour cell growth, NCI panel, 48 h

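Results reflect a 48-hour exposure of cells in 96-well plates to compound at five concentrations. The concentration for 50% growth inhibition is given as GI50.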 The source made the active and inactive calls. Cut-off read from the data, not from the text of the source: active = GI50 up to about 1.1 µM and inactive = higher.

Take `O=C(NP(=O)(N1CC1)N1CC1)c1cc(I)ccc1I` [DIIODBENZOTEPH]: the GI50 in the experiment with 786-0 is 21.9 µM (inactive); with A549, 23.6 µM (inactive); in the experiment with BT-549, 53.7 µM (inactive); in the experiment with COLO 205, > 91.4 µM (inactive); in the experiment with HCT-116, 40.3 µM (inactive); in the experiment with HCT-15, 69.3 µM. Besides, the GI50 in the experiment with HT-29 is 62.7 µM (inactive); with KM12, > 91.2 µM (inactive); in the experiment on LOX IMVI it was 12.4 µM (inactive); in the experiment on MDA-MB-435 it was 32.3 µM (inactive); with MDA-N it was > 73.6 µM (inactive); with MOLT-4 it was 5.58 µM (inactive). Also, the GI50 is 10.9 µM (inactive) in the experiment with NCI-H23; 3.72 µM (inactive) with NCI-H460; 27.3 µM (inactive) in the experiment with NCI-H522; 31.2 µM (inactive) in the experiment on OVCAR-8; 27.3 µM (inactive) in the experiment with SF-268; 30 µM (inactive) in the experiment on SF-295. Also, the GI50 with SK-MEL-28 was > 95.3 µM (inactive); with T47D it was 22.9 µM (inactive).
